Patent US9447066B2, “Salts and crystal forms” (AskAt Inc., priority 2012, dated 2016)
“Also recorded” adds a separate entry of the source. Read-outs that look alike come from different tables or passages of the source.

How the values were obtained:
[1] = Intrinsic dissolution experiments; assay type: physicochemical; conditions: for intrinsic dissolution rate, comparison in words: pH 6.8 buffer and water; for time to plateau / complete dissolution of tablet: pH 6.8 buffer (neutral media)
Description: Intrinsic dissolution experiments were performed on the free acid, the meglumine salt, and the potassium salt. The measurements were carried out in pH 6.8 (0.05 M) phosphate buffer and water.
The press used for tablet preparation for intrinsic dissolution rate measurements was a mini-IDR compression system (pION/Heath Scientific). Approximately 11 mg of material was pressed in the cylindrical hole of a passivated stainless steel die, to a uniform, flat surface, with an exposed area of 0.072 cm^2. The pressure applied was approximately 50 bar for 3-5 min. The sample die was inserted in a cylindrical Teflon rotating disk carrier containing an embedded magnetic stirring bar at its base. The die/stirrer assembly was placed in a flat bottomed glass vial, ready for dissolution analysis.
The dissolution rate was measured in 20 ml of solvent (medium) and the path length of the UV meter was 2 mm. Applied stirring speed during measurement was 100 rpm. Measurements were performed at 20° C.

[2] = In vivo pharmacokinetic study in Beagle dogs; conditions: male Beagle dogs; for AUC(0-t): read-out: AUC0-24h; for time-course of mean plasma concentration in comparison with API: oral capsule, FIG. 10
Description: In vivo pharmacokinetic study was carried out in Beagle dogs.
Male Beagle dogs were given single oral dose of the test articles by gelatin capsule formulation at a dose of 5 mg/kg. The actual weight of the test articles in the gelatin capsule to be administered to each animal was calculated based on the body weight measured just before the administration.
Following dosing, blood was collected from the external jugular vein of animals at 0, 0.25, 0.5, 1, 2, 4, 6, 8, 12, 24, 48, 72, 96, 120, 144, 168, […], 288, and 360 hour after administration. Approximately 1 mL of blood will be collected into tubes containing heparin-Na.
On the day of administration, food was given to the animals after 6-hour blood sampling.
The drug concentrations in dog plasma were determined with the validated bioanalytical assay procedures. PK parameters were determined with non-compartmental analysis.

[3] = Quantitative Solubility Assessment; assay type: physicochemical; conditions: pH 6.8 phosphate buffer (0.05 M) and water, thermodynamic from solid; neutral to basic environment
Description: Quantitative Solubility Assessment were performed on the free acid, the meglumine salt, and the potassium salt. The measurements were carried out in pH 6.8 phosphate buffer (0.05M) and water.
A standard 1.8 ml screw cap vial was charged with the material, each solvent (medium) and a magnetic stirring bar. The vials were subsequently closed and equilibrated at the ambient temperature for 24 h while stirring.
The liquid part was retrieved with a syringe and filtrated (0.5 micron filter); the isolated mother liquors were diluted to two dilutions selected according to the calibration curve. Quantities of the API in the diluted solutions were determined via HPLC analysis (DAD). The calibration curve was obtained from two independently prepared stock solutions of the API in 50% water/50% acetonitrile.

[4] = Solid-state stability at 40° C. and 75% relative humidity; assay type: physicochemical; conditions: 75% RH, 1 to 4 weeks
Description: The solid-state stabilities were assessed as follows: HPLC vials, containing approximately 5 mg of material, were placed in the climate chamber at 40° C. and 75% relative humidity. The samples were analyzed by XRPD and HPLC (both purity and chiral) at time points of 1, 2, 3 and 4 weeks. For each week a separate vial was prepared.

[5] = Slurry experiments (physical stability in solvents); assay type: physicochemical; conditions: ethanol, ethyl acetate, n-heptane; 25° C.; 2 weeks
Description: The slurry experiments of the meglumine salt were performed; the materials (15-30 mg) were weighed into 1.8 ml vials, charged with a stirring bar and the solvent (ethanol, ethyl acetate and n-heptane) and the slurries were placed at 25° C. under stirring. After two weeks, the slurries were subject to centrifugation and the liquid was removed with a pipette. The solids were sampled “wet” for XRPD. Subsequently the remaining solids dried under 200 mbar at room temperature for 5 days and all solids were analyzed as “dry” by XRPD.

[6] = Variable humidity XRPD (VH-XRPD); assay type: physicochemical; conditions: 60 to 80% RH, 80 to 10% RH, 10 to 50% RH
Description: (§1) For variable humidity and temperature experiment the ANSYCO HT chamber was used. The material was placed on a fixed sample holder that was mounted inside the chamber. The humidity was applied locally and varied from 10 to 80% (dew point). The temperature variation rate was 10° C./min.
Variable humidity XRPD (VH-XRPD) measurements of the meglumine salt were performed under the humidity of 60 to 80% RH (1st sorption), 80 to 10% RH (desorption) and 10 to 50% (2nd sorption).

[7] = Variable temperature XRPD (VT-XRPD); assay type: physicochemical; conditions: 25° C. to 160° C. and back to 25° C.
Description: as §1
Variable temperature XRPD (VT-XRPD) measurements of the meglumine salt were performed under the temperature of 25° C. to 160° C. (heating) and thereafter decreased to 25° C. (cooling).

[8] = DVS analysis (moisture sorption); assay type: physicochemical
Description: Moisture sorption isotherms of small samples were obtained using a DVS-1 system from Surface Measurement Systems (London, UK) with an accuracy of 0.1 μg. The relative humidity cycled between 45 and 95% RH (sorption), 95 to 0% RH (desorption) and 0 to 45% (sorption) at a constant temperature of 25° C. with a hold time of 60 minutes per step (10% relative humidity step). At the end of the DVS experiment the sample was measured by XRPD.
The XRPD pattern of the sample after DVS measurement was not changed.

[9] = pH 6.8 (0.05 M) phosphate buffer, 20° C., 100 rpm
[10] = dog, plasma, single oral dose 5 mg/kg, gelatin capsule
[11] = dog, plasma, single oral dose 5 mg/kg, gelatin capsule, read-out: Cmax
[12] = single oral dose 5 mg/kg, gelatin capsule

With `CC(C)(C)c1cc2c(cc1Cl)C=C(C(=O)O)[C@@H](C(F)(F)F)O2` [Compound A, (S)-6-chloro-7-(1,1-dimethylethyl)-2-trifluoromethyl-2H-1-benzopyran-3-carboxylic acid] the “concentration after one hour” value [1, 9] was 27000 ng/mL, the “intrinsic dissolution rate, comparison in words” value (“intrinsic dissolution rate” for short) [1] was “very limited dissolution” and the “concentration after one hour” value ([1]; water, 20° C., 100 rpm) was “about 1 μg/ml”. It also gave an AUC(0-t) [2, 10] of 287 µg·h/mL and a Cmax [2, 11] of 19700 ng/mL.

With `CC(C)(C)c1cc2c(cc1Cl)C=C(C(=O)[O-])[C@@H](C(F)(F)F)O2.[K+]` [potassium salt, (S)-6-chloro-7-(1,1-dimethylethyl)-2-trifluoromethyl-2H-1-benzopyran-3-carboxylic acid potassium salt] the “plateau concentration (dissolution of complete tablet)” value [1, 9] was 370 µg/mL, the “time to plateau / complete dissolution of tablet” value ([1]; 20° C.) was ≤ 15 min and the “intrinsic dissolution rate” value ([1]; potassium salt) was “much better than the free acid; also recorded: dissolved the fastest in all cases”. The “time to complete dissolution of tablet” value ([1]; water, 20° C.) was ≤ 5 min, the “final concentration (complete tablet dissolved)” value ([1]; water, 20° C., 100 rpm) was 400 µg/mL and the solubility at 24 h [3] was > 120 mg/mL. For the same compound, the AUC(0-t) [2, 10] was 436 µg·h/mL, the Cmax [2, 11] was 28200 ng/mL and the “time-course of mean plasma concentration in comparison with API” value [2] was “rapidly increased”. The “chemical purity after solid-state stability test” value [4] was ≥ 99.9% and the “enantiomeric purity after solid-state stability test” value [4] was ≥ 99.9%.

With “(S)-6-chloro-7-(1,1-dimethylethyl)-2-trifluoromethyl-2H-1-benzopyran-3-carboxylic acid meglumine salt” the “plateau concentration (dissolution of complete tablet)” value [1, 9] was “about 250 μg/ml”, the “time to plateau / complete dissolution of tablet” value ([1]; 20° C.) was 45 min and the “intrinsic dissolution rate” value [1] was “much better than the free acid”. For the same compound, the “concentration reached in the first 9 min” value ([1]; water, 20° C., 100 rpm) was “about 210 μg/ml”, the “final concentration (complete tablet dissolved)” value ([1]; water, 20° C., 100 rpm) was 250 µg/mL and the “time-course of mean plasma concentration in comparison with API” value [2] was “rapidly increased”. For the same compound, the AUC0-24h [2, 12] was 381,000 ng · hr/mL, the Cmax [2, 12] was 28,200 ng/mL and the “physical and chemical stability (XRPD, HPLC)” value [4] was “remained physically and chemically stable”. For the same compound, the “physical stability of wet and dry solids in slurry (XRPD)” value [5] was “physically stable”, the “crystal form through sorption-desorption-sorption cycle (VH-XRPD)” value [6] was “remained unchanged” and the “crystal form through heating-cooling cycle (VT-XRPD)” value [7] was “remained unchanged”. The maximum water uptake ([8]; DVS, at 95% RH, 25° C.) was 2.0% and the “XRPD pattern of the sample after DVS measurement” value ([8]; after DVS cycle) was “not changed”.
